Assays:
[1] = molecular target: T1, ATP-dependent translocase ABCB1 (Homo sapiens, UniProt P08183); test: Activity at MDR1 (unknown origin) expressed in MDCK cells assessed as interference with calcein-AM efflux incubated for 30 mins prior to calcein-Am addition measured after 30 mins by fluorometric analysis; assay type: cell-based
[2] = molecular target: Multidrug resistance-associated protein 1 (Homo sapiens, UniProt P33527); test: Activity at MRP1 (unknown origin) expressed in MDCK cells assessed as interference calcein-AM efflux incubated for 30 mins prior to calcein-Am addition measured after 30 mins by fluorometric analysis; assay type: cell-based
[3] = Apparent permeability across human Caco2 cells after 2 hrs; assay type: ADME, cell-based; settings: Caco-2
[4] = molecular target: T1, ATP-dependent translocase ABCB1; test: Activity at MDR1 (unknown origin) expressed in MDCK cells assessed as ATPase activity after 2 hrs by ATPlite assay; assay type: cell-based
[5] = molecular target: T2, Broad substrate specificity ATP-binding cassette transporter ABCG2 (Homo sapiens, UniProt Q9UNQ0); test: Activity at BCRP (unknown origin) expressed in MDCK cells assessed as interference with rhodamine-123 efflux at 200 nM; assay type: cell-based; settings: 0.2 µM
T2 sequence (Q9UNQ0 whole entry): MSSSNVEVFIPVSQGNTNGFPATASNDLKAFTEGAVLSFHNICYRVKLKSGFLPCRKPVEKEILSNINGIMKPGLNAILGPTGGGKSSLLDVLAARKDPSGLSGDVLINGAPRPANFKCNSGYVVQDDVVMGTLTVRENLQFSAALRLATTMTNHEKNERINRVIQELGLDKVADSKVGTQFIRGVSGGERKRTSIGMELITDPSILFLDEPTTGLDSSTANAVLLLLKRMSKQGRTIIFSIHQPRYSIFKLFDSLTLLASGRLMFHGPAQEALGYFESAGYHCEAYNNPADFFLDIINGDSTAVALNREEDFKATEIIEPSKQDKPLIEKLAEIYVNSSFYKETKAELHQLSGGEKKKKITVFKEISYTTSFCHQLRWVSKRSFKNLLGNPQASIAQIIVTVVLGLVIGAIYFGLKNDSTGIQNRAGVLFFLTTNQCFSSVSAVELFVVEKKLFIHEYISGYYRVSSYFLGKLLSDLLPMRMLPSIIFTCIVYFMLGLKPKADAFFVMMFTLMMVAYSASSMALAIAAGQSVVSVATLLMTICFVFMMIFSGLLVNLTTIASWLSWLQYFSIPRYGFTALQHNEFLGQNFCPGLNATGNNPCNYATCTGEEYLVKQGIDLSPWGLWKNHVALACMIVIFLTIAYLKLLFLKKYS

[6] = molecular target: T2, Broad substrate specificity ATP-binding cassette transporter ABCG2; test: Activity at BCRP (unknown origin) expressed in MDCK cells assessed as interference with rhodamine-123 efflux; assay type: cell-based

Chain of Multidrug resistance-associated protein 1 (P33527 whole entry): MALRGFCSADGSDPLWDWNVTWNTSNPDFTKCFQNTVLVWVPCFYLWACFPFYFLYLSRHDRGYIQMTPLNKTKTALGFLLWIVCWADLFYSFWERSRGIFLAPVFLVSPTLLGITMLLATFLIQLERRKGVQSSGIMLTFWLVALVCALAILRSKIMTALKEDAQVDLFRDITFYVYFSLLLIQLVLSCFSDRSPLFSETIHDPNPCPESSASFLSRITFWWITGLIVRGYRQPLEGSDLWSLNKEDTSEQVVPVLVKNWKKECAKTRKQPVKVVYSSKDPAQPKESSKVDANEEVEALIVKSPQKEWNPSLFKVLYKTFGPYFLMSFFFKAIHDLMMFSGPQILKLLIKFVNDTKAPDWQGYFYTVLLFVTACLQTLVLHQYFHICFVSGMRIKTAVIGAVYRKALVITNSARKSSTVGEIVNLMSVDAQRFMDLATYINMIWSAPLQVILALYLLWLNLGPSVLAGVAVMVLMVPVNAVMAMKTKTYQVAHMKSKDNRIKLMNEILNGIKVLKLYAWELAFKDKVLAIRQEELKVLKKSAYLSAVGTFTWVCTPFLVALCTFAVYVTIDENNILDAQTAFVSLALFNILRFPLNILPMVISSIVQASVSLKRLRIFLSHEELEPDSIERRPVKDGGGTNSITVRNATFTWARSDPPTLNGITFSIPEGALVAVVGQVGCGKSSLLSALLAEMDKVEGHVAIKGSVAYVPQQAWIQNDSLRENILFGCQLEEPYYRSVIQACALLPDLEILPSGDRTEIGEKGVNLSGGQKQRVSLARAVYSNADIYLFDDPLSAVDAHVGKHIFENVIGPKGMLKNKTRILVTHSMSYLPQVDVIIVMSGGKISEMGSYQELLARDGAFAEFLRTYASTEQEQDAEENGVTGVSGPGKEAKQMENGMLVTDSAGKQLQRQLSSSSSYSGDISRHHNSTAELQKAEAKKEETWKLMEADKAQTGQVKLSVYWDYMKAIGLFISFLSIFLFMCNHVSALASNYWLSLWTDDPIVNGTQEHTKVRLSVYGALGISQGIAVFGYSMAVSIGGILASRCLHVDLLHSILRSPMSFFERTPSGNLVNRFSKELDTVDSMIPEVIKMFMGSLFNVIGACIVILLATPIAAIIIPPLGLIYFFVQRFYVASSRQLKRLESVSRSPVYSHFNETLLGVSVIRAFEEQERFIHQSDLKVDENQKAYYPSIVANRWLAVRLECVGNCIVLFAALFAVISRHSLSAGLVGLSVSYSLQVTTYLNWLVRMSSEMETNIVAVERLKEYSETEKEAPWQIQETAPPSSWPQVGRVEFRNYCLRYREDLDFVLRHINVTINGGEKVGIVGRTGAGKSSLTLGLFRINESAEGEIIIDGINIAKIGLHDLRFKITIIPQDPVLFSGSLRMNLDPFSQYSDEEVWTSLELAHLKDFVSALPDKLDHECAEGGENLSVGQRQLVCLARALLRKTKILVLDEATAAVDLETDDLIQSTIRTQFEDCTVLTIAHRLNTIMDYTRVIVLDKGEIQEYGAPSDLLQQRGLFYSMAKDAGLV
T1 sequence (P08183 whole entry): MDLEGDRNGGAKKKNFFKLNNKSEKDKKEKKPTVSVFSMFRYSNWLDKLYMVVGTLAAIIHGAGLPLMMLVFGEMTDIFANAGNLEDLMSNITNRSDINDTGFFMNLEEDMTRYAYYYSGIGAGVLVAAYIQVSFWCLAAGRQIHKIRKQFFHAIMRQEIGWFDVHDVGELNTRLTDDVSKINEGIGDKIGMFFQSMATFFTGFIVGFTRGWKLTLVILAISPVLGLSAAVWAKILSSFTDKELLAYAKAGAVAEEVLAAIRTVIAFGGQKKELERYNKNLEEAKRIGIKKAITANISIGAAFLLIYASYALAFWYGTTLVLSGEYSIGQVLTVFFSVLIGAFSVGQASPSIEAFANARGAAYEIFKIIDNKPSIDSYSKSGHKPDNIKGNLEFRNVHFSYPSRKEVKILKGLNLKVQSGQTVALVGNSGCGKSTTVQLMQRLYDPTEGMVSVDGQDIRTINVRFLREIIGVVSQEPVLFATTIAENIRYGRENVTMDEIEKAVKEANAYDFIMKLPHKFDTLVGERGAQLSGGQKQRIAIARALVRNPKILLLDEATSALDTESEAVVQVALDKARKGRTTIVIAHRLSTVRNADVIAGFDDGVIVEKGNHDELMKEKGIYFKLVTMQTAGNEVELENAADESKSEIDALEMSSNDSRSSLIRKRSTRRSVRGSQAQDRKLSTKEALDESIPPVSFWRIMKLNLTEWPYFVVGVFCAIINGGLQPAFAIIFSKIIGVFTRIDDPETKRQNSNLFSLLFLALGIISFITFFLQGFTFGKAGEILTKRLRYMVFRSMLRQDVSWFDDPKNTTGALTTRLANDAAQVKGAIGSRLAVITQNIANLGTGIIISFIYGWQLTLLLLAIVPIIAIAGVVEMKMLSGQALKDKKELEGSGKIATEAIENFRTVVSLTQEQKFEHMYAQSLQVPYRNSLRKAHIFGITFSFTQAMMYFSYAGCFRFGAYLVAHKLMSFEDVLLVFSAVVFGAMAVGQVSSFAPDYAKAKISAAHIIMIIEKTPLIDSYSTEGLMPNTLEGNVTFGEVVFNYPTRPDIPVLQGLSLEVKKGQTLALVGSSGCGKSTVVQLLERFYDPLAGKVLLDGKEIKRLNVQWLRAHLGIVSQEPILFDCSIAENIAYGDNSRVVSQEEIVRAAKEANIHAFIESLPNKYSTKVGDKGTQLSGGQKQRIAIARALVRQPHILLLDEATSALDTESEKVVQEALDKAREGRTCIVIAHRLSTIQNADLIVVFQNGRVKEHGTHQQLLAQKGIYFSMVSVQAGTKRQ

SMILES	EC50 [1]	EC50 [2]	Papp at 2 h [3]	Activity [4]	Activity [5]	EC50 [6]
COc1cc2c(cc1OC)CN(Cc1coc(-c3ccc4cc(Br)ccc4c3)n1)CC2	1.8 µM	> 100 µM	0.32 ×10⁻⁶ cm/s	Not Active	–	–
COc1cc2c(cc1OC)CN(Cc1coc(-c3ccc4cc(O)ccc4c3)n1)CC2	–	–	0.157 ×10⁻⁶ cm/s	Not Active	–	–
COc1cc2c(cc1OC)CN(CCCC1CCCc3c(OC)cccc31)CC2 (centres undefined)	–	> 100 µM	–	–	–	–
COc1ccc2cc(-c3nc(CN4CCc5cc(OC)c(OC)cc5C4)co3)ccc2c1	0.6 µM	14.7 µM	0.38 ×10⁻⁶ cm/s	Active	Not Active	–
COc1cc2c(cc1OC)CN(Cc1coc(-c3ccc4cc(F)ccc4c3)n1)CC2	–	–	0.082 ×10⁻⁶ cm/s	Not Active	–	–
COc1ccc2cc(-c3nc(CN4CCc5cc(OC)c(OC)cc5C4)cs3)ccc2c1	–	–	0.6 ×10⁻⁶ cm/s	Active	Not Active	–
COc1cc2c(cc1OC)CN(Cc1csc(-c3ccc4cc(Br)ccc4c3)n1)CC2	–	–	0.59 ×10⁻⁶ cm/s	Active	Not Active	–
COc1cc2c(cc1OC)CN(Cc1ccc(-c3ccc(O)cc3)cc1)CC2	0.69 µM	9.3 µM	–	–	–	73 µM
COc1ccc2cc(-c3ccc(CN4CCc5cc(OC)c(OC)cc5C4)o3)ccc2c1	2.9 µM	> 100 µM	0.408 ×10⁻⁶ cm/s	Not Active	–	–
COc1cc2c(cc1OC)CN(Cc1ccc(-c3ccc4ccccc4c3)o1)CC2	7.1 µM	> 100 µM	0.33 ×10⁻⁶ cm/s	Not Active	–	–
COc1cc2c(cc1OC)CN(Cc1csc(-c3ccc4ccccc4c3)n1)CC2	3.5 µM	3.2 µM	2.37 ×10⁻⁶ cm/s	Not Active	–	–
COc1cc2c(cc1OC)CN(Cc1coc(-c3ccc4ccccc4c3)n1)CC2	2.3 µM	–	0.038 ×10⁻⁶ cm/s	Not Active	–	–
COc1cc2c(cc1OC)CN(Cc1csc(-c3ccc4cc(F)ccc4c3)n1)CC2	4.8 µM	8.8 µM	0.95 ×10⁻⁶ cm/s	Not Active	–	–
COc1cc2c(cc1OC)CN(CC/C=C1\CCCc3c(OC)cccc31)CC2	1.5 µM	2.8 µM	–	–	–	–

— ChEMBL document CHEMBL2331192, “Naphthalenyl derivatives for hitting P-gp/MRP1/BCRP transporters” (Bioorg Med Chem, 2013)
